The values below come from patent EP0491103B1, “Compositions for therapeutic use comprising organogermanium derivatives” (Larranaga Mendizabal, Eusebio, priority 1990, dated 1992).

The conditions of series [1]: as indicated in Miyao K. et al., DRUGS OF FUTURE 13, no. 5, 1988; cited from earlier work.
The test system of series [2] is macrophages obtained from the mice peritoneum. Kind of series: Test 2: Production of macrophages in mice (peritoneal macrophage count). It counts as in vivo, BALB/C mice. The conditions noted are these: 1 ml subcutaneously every 3 days; for macrophage counts: after 30 days (10 sessions), first group, distilled water 1.0; for average macrophage counts: at 60 days (20 sessions), second group, distilled water 1.1.

In series [3] the test system is macrophages removed from the second Group mice. Kind of series: Test 2: protein synthesis (35S-met.) and DNA synthesis (3H-Thy.) in macrophages removed from treated mice and cultured in vitro for 24 hours. It counts as in vivo, BALB/C mice. The conditions noted are these: macrophages of second group mice (60 days) cultured 24 hours, water-treated mice = 100%; for relative (percentage) values of DNA synthesis: ³H-Thy.; for relative (percentage) values of protein synthesis: ³⁵S-met. The protocol:
15 BALB/C mice (18-20 g) were divided into two groups of 5 and 10 mice. The first group was administered 1 ml of the aqueous solutions described below every 3 days for 30 days (10 sessions), subcutaneously.
The solutions applied were as follows: a) distilled water, b) sodium thiosulphate (25 g/lit), c) formic acid (0.3 g/lit), d) above described organogermanium compound solution, and e) above described organogermanium compound plus formic acid (0.3 g/lit).
Finally, the macrophages removed from the second Group mice were cultured "in vitro" for 24 hours, protein synthesis (using ³⁵S-met. as indicator) and DNA synthesis (using ³H-Thy.) determinations being made therewith.

For `O=C(O)C[CH2][Ge](=[O])[O][Ge](=[O])[CH2]CC(=O)O` [Ge-132, carboxyethylgermanium sesquioxide], in series [1], the solubility in water result is reported as “soluble in water”.

Regarding `O=CO` [formic acid], in series [2], the macrophage counts was 1.2 millions of microphages per millilitre and the average macrophage counts was 1.2 millions of macrophages per millilitre. Also, in series [3], the “relative (percentage) values of DNA synthesis” value was 140% and the “relative (percentage) values of protein synthesis” value came to 115%.

Take sodium thiosulphate: in series [2], the macrophage counts was 0.9 millions of microphages per millilitre and the average macrophage counts was 1.0 millions of macrophages per millilitre. Further, in series [3], the “relative (percentage) values of DNA synthesis” value amounted to 102% and the “relative (percentage) values of protein synthesis” value was found to be 98%.
